Results: US9200006B2, “Protease inhibitors” (MEDIVIR AB, priority 2008, dated 2015)

What was measured:
[1] = reference markers for the permeability assay; cited from earlier work
[2] = Metabolic stability in whole blood; format: in vitro ADME; settings: worked out from whole blood CLint
Procedure: Compounds of the invention and the indicated comparative examples were tested for metabolic stability in a cytosol assay in which the compounds were incubated with commercially available human hepatic cytosol fractions and the disappearance of the compound monitored by HPLC or LC/MS. Pooled human liver cytosol fractions are less likely to represent outlier individuals than blood from a single individual and can be stored frozen, unlike whole blood. The cytosol assay thus provides a consistent assay testbed as a guide to the stability of a compound in the in vivo environment, such as when exposed to whole blood.
In short, test compounds (2 μM) are incubated in pooled human liver cytosol (Xenotech LLC Lenexa US, 1 mg/mL protein in 0.1 M phosphate buffer, pH 7.4) at 37° centigrade over a one hour period. The incubations are initiated by the addition of 1 mM NADPH co-factor. Timed sub-samples were taken at 0, 20, 40 and 60 minutes and “crash precipitated” by the addition of 3 volumes of ice-cold acetonitrile. The samples were centrifuged at reduced temperature and the supernatants were separated and analyzed by LC-MS-MS.
Alternatively, an analogous stability assay is carried out in human or monkey whole blood and/or commercially available liver microsomes, such as XEN 025.

[3] = In vivo mouse PK, oral administration (FIG. 1); parameters: species or system male C57Bl mice; settings: orally administered, 60 μmol/kg in 1% Methocel A4C vehicle
Source text: Various embodiments of the invention will now be described by way of illustration only with reference to the following Examples and FIG. 1 which depicts plasma concentration against time for male C57Bl mice orally administered a compound of the invention or a compound of the prior art.

Compound | % absorption in man [1] [%] | other results
N[C@@H](Cc1ccccc1)C(=O)O [L-Phenylalanine] | 100 | –
CC(C)C[C@H](NC(=O)c1ccc(-c2csc(N3CCN(C)CC3)n2)cc1)C(=O)N1C[C@@H](C)[C@H]2OCC(=O)[C@H]21 [comparative example] | – | estimated / calculated whole blood half life [2]: little over an hour
OC[C@@H](O)[C@@H](O)[C@H](O)[C@H](O)CO [Mannitol] | 16 | –
CN(Cc1cnc2nc(N)nc(N)c2n1)c1ccc(C(=O)N[C@@H](CCC(=O)O)C(=O)O)cc1 [Methotrexate] | 20 | –
C#C[C@@H]1CN(C(=O)[C@H](CC(C)C)NC(=O)c2ccc(-c3nc(N4CCN(C)CC4)sc3F)cc2)[C@@H]2C(=O)CO[C@H]12 [Example 2, N-[1-6-(ethynyl-3-oxo-hexahydro-furo[3,2-b]pyrrole-4-carbonyl)-3-methyl-butyl]-4-[5-fluoro-2-(4-methyl-piperazin-1-yl)thiazol-4-yl]-benzamide] | – | in vivo exposure (Cmax or AUC) compared with the prior art compound [3]: very much greater
